Laboratory results from patent US10945983B2, “Oleocanthal isolation and cancer treatment” (Board of Supervisors for the University of Louisiana System, priority 2016, dated 2021).
Read-outs that look alike come from different tables or passages of the source.

Columns and labels:
[1] = system: MDA-MB-231/GFP human breast cancer cells; experiment: Orthotopic TNBC xenograft model in athymic mice; format: in vivo, athymic nude mice; conditions: intraperitoneal 5 mg/kg, 3× per week; previous experiments of the inventors
Description: MDA-MB-231/GFP human breast cancer cells were cultured and resuspended in serum-free DMEM medium (20 μl). After anesthesia, cell suspensions (1×10^6 cells/20 μl) were inoculated subcutaneously into the second mammary gland fat pad just beneath the nipple of each athymic nude mouse to generate orthotopic breast tumors. […] FIG. 20 is a line chart showing tumor size was evaluated periodically during treatment at indicated days postinoculation. Tumor volume (V) was calculated by V=L/2×W^2, where L was the length and W was the width of tumors. […]
Turning to FIGS. 20-23, in the current disclosure, as a future dietary candidate OC nano-emulsion oral in vivo antitumor efficacy was assessed using the same mouse model using MDA-MB-231/GFP human BC cells. […] The mice were monitored by measuring body weight, and observation of their physical behavior throughout the study. […]
MDA-MB-231/GFP human breast cancer cells were harvested, pelleted by centrifugation at 850×g for 5 minutes, and re-suspended in sterile serum-free DMEM medium (20 μL). […] The mice were monitored by measuring tumor volume, body weight, and clinical observation. Tumor volume (V) was calculated by V=L/2×W^2, where L was the length and W was the width of tumors. […]

mTOR = mTOR (Homo sapiens, UniProt P42345); conditions: read-out: IC50 mTOR enzymatic activity; cited from earlier work
TNBC MDA-MB-231 BC cells = experiment: TNBC recurrence after neoadjuvant paclitaxel; format: in vivo; conditions: 10 mg/kg oral daily
Description: (§1) The correlation between c-Met/HGF pathway and tumor resistance is documented. […] This was consistent with the OC c-Met inhibitory activity and previously shown growth and recurrence effects.

HER2+-ER+BT-474 BC cells = experiment: BT-474 recurrence after neoadjuvant lapatinib regimen; format: in vivo, athymic nude mice; conditions: OC 10 mg/kg, ip, 3×/week, additional 54 days after lapatinib 50 mg/kg for 60 days
Description: FIG. 36A is a photograph of representative animals of vehicle control group and two photographs showing circled tumor developed over the additional 54 days period. FIG. 36B is two photographs of representative animals that completed 60 days oral lapatinib 50 mg/kg group and two photographs of developed circled tumors after additional 54 days. FIG. 36C is two photographs of representative animals of 10 mg OC 1p, 3×/week group, and two photographs showing no tumor developed over the additional 54 days regimen.
as §1

BT-474 tumor recurrence = experiment: HER2+/ER+ BT-474 recurrence after primary tumor surgical excision; conditions: for recurrence tumor weight inhibition: additional 54 days after excision
Description: Female athymic nude mice used in previous experiment were anesthetized prior to the surgical excision procedure with ip ketamine/xylazine combination (100 mg/kg/15 mg/kg). 15-20 min after administering the anesthetic animal reflexes tested by gently tapping the hind legs with sterile syringe needle and finally their tumors were surgically excised and each wound was closed by one or two stitches. Ketoprofen, 1 mg/kg was used 12 hours before and 12 h after surgery for effective analgesia. Ophthalmic lubricant was used during the surgery to prevent corneal drying. Bupivicaine (0.25%, 1-2 drops), twice daily, was used topically at the excision wound site, local infiltration along surgery site during closure with a maximum dose of 2 mg/kg.

BT-474 human BC cells = conditions: for BT-474 tumor weight inhibition vs vehicle: 3×/week, intraperitoneal, 60 days; for BT-474 tumor growth inhibition: 5×/week
Description: 5×10^6 cells/20 μL BT-474 human BC cells were sc inoculated into second mammary gland fat pad of athymic nude (Foxn1^nu/Foxn^1). […] Top panels show photographs of representative intact animal for each group. Bottom panels show photographs of excised primary tumor at experiment end.
Turning to FIGS. 28A-32, the HER2+ BC represents >15% of total BC cases with aggressive metastatic and highly resistant profile.

Structure (SMILES)	tumor growth inhibition [1]	IC50 (mTOR)	recurrence and chemoresistance after neoadjuvant paclitaxel (TNBC MDA-MB-231 BC cells)	tumor recurrence after lapatinib regimen (HER2+-ER+BT-474 BC cells)	recurrence tumor weight inhibition (BT-474 tumor recurrence; 10 mg/kg, ip, 3×/week)	BT-474 tumor weight inhibition vs vehicle (BT-474 human BC cells; 5 mg/kg)	BT-474 tumor weight inhibition vs vehicle (BT-474 human BC cells; 10 mg/kg)	recurrence tumor weight inhibition (BT-474 tumor recurrence; 50 mg/kg, 5×/week oral)	body weight (BT-474 tumor recurrence; lapatinib 50 mg/kg, additional 54 days)	BT-474 tumor growth inhibition (BT-474 human BC cells; 12.5 mg oral dose)	BT-474 tumor growth inhibition (BT-474 human BC cells; 50 mg oral dose)
C/C=C(/C=O)[C@@H](CC=O)CC(=O)OCCc1ccc(O)cc1 [OC, (-)-Oleocanthal]	65%	0.708 µM	effectively inhibited in vivo recurrence and reversed chemoresistance	inhibited the HER2+-ER+BT-474 BC cells recurrence	86.2%	88.2%	93.2%	–	–	–	–
CS(=O)(=O)CCNCc1ccc(-c2ccc3ncnc(Nc4ccc(OCc5cccc(F)c5)c(Cl)c4)c3c2)o1 [lapatinib, reference compound]	–	–	–	–	–	–	–	81.4%	significant weight decrease	85.9%	89.9%
